Results on seven compounds are retold here after patent publication US20140121216A1, “INDOLEAMINE DERIVATIVES FOR THE TREATMENT OF CENTRAL NERVOUS SYSTEM DISEASES” (Adamed Sp. z o.o., priority 2011, published 2014).

In general, Ki refers to the dissociation constant of the complex between target and ligand, obtained from inhibition or displacement.

The target of data set [1] is T1, hERG potassium channels (KCNH2 gene, expressed in CHO cells) (Homo sapiens, UniProt Q12809).
T1 construct: expressed in transfected cells; host or cells: CHO cells
As to the kind of experiment: Ability to block hERG potassium channel, electrophysiology (IonWorks Quattro). The format is cell-based. Particulars: for hERG [%] (% block of hERG current): compound 1×10^−5 M; for Ki: read-out: Inhibition constants Ki for hERG potassium channels (column head H1 [nM]). The procedure: Ability to block hERG potassium channels was determined using the electrophysiological method and cloned hERG potassium channels (KCNH2 gene, expressed in CHO cells) as biological material. The effects were evaluated using IonWorks™ Quattro system (MDS-AT).
hERG current was elicited using a pulse pattern with fixed amplitudes (conditioning prepulse: −80 mV for 25 ms; test pulse: +40 mV for 80 ms) from a holding potential of 0 mV. hERG current was measured as a difference between the peak current at 1 ms after the test step to +40 mV and the steady-state current at the end of the step to +40 mV.
Data acquisition and analyses were performed using the IonWorks Quattro™ system operation software (version 2.0.2; Molecular Devices Corporation, Union City, Calif.). Data were corrected for leak current.
The hERG block was calculated as: % Block=(1−ITA/IControl)×100%, where IControl and ITA were the currents elicited by the test pulse in control and in the presence of a test compound, respectively.

The test system of data set [2] is α1 adrenergic receptors (rat cerebral cortex). As to the kind of experiment: Binding assay, α1 adrenergic receptor ([3H]prazosin). Particulars: for α1 [%] affinity test result: compound 1×10^−6 M; for Ki: read-out: Inhibition constant Ki α1. The procedure: (§1) The specific ligand binding to the receptors is defined as the difference between the total binding and the non-specific binding determined in the presence of an excess of unlabelled ligand.
(§2) The inhibition constants (Ki) were calculated using the Cheng Prusoff equation (Ki=IC50/(1+(L/KD)), where L=concentration of radioligand in the assay, and KD=affinity of the radioligand for the receptor). A Scatchard plot is used to determine the Kd. The IC50 values (concentration causing a half-maximal inhibition of control specific binding) and Hill coefficients (nH) were determined by non-linear regression analysis of the competition curves generated with mean replicate values using Hill equation curve fitting (Y=D+[(A−D)/(1+(C/C50)^nH)], where Y=specific binding, D=minimum specific binding, A=maximum specific binding, C=compound concentration, C50=IC50, and nH=slope factor). This analysis was performed using a software developed at Cerep (Hill software) and validated by comparison with data generated by the commercial software SigmaPlot® 4.0 for Windows® (©1997 by SPSS Inc.).
Experimental conditions for tests are given in Table 7, and results of tests for representative compounds are given in Tables 8a and 8b (α1 receptors) and in Tables 9a and 9b (α2C receptors).

In data set [3] the target is T2, human recombinant D3 receptors (Homo sapiens, UniProt P35462).
T2 construct: purchased PerkinElmer
Description: Binding assay, dopaminergic D3 receptor ([3H]methylspiperone). Particulars: read-out: Inhibition constant Ki D3. The method, then: (§3) Moreover, ability of the compounds of the invention to block potassium channel hERG was tested.
as §1
as §2, with “factor).” for “factor). This analysis was performed using a software developed at Cerep (Hill software) and validated by comparison with data generated by the commercial software SigmaPlot® 4.0 for Windows® (©1997 by SPSS Inc.).”

Data set [4] deals with T3, D2 receptor, human recombinant (GeneBLAzer D2-Gqo5 CHO-K1 DA) (Homo sapiens, UniProt P14416).
T3 construct: purchased Invitrogen; host or cells: CHO-K1 (GeneBLAzer D2-Gqo5 CHO-K1 DA)
Description: Binding assay, dopaminergic D2 receptor ([3H]methylspiperone). Particulars: read-out: Inhibition constant Ki D2. The procedure: as §3, §1
as §2, with “factor).” for “factor). This analysis was performed using a software developed at Cerep (Hill software) and validated by comparison with data generated by the commercial software SigmaPlot® 4.0 for Windows® (©1997 by SPSS Inc.).”

Data set [5] deals with T4, 5-HT1A receptor (rat hippocampus) (Rattus norvegicus, UniProt P19327).
T4 construct: hippocampus; from tissue; host or cells: rat hippocampus
T4 sequence (P19327 1-422): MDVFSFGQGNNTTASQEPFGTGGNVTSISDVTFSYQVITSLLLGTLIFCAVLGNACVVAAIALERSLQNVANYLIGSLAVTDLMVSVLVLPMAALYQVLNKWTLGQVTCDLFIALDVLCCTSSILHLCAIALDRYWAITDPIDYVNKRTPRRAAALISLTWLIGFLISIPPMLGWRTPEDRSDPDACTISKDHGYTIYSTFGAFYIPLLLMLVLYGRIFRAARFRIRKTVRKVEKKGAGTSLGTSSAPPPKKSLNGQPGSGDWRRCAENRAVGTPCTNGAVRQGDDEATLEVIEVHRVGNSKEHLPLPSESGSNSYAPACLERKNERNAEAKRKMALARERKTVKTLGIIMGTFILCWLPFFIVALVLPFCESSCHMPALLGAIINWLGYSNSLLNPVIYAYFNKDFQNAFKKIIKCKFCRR
As to the kind of experiment: Binding assay, 5-HT1A receptor ([3H]8-OH-DPAT). Particulars: read-out: Inhibition constant Ki 5-HT1A. The method, then:
as §3, §1
as §2, with “factor).” for “factor). This analysis was performed using a software developed at Cerep (Hill software) and validated by comparison with data generated by the commercial software SigmaPlot® 4.0 for Windows® (©1997 by SPSS Inc.).”

Data set [6] deals with T5, 5-HT6 receptor, human recombinant (Homo sapiens, UniProt P50406).
T5 construct: purchased PerkinElmer
As to the kind of experiment: Binding assay, 5-HT6 receptor ([3H]LSD). Particulars: read-out: Inhibition constant Ki 5-HT6. The procedure: as §3, §1
as §2, with “factor).” for “factor). This analysis was performed using a software developed at Cerep (Hill software) and validated by comparison with data generated by the commercial software SigmaPlot® 4.0 for Windows® (©1997 by SPSS Inc.).”

A further data set has as its system Male CD-1 mice. As to the kind of experiment: Dizocilpine-induced locomotor hyperactivity in mice. The format is in vivo. The method, then: Potential antipsychotic activity was tested for the representative compound 24 in mouse model of psychosis, involving the induction of locomotor hyperactivity by administering psychotomimetic substance-dizocilpine. The ability of a test compound to remove this effect is a measure of potential antipsychotic activity.
Male CD-1 mice were group-housed for 2-3 day period in polycarbonate Makrolon type 3 cages (dimensions 26.5×15×42 cm) in an environmentally controlled, experimental room (ambient temperature 22-20° C.; relative humidity 50-60%; 12:12 light:dark cycle, lights on at 8:00), in groups of 15. Standard laboratory food (Ssniff M-Z) and filtered water were freely available. On the day before experiments the equipment produced “white noise” was turned on for 30 minutes and mice were weighted exact to 1 g. Animals were assigned randomly to treatment groups. All the experiments were performed by two observers unaware of the treatment applied between 9:00 and 14:00 on separate groups of animals. […]
The locomotor activity was recorded with an Opto M3 multi-channel activity monitor (MultiDevice Software v.1.3, Columbus Instruments). The mice were individually placed in plastic cages (22×12×13 cm) for 30 minutes habituation period, and then the crossings of each channel (ambulation) were counted during 1 h with data recording every 5 minutes. […]

T1 sequence (Q12809 whole entry): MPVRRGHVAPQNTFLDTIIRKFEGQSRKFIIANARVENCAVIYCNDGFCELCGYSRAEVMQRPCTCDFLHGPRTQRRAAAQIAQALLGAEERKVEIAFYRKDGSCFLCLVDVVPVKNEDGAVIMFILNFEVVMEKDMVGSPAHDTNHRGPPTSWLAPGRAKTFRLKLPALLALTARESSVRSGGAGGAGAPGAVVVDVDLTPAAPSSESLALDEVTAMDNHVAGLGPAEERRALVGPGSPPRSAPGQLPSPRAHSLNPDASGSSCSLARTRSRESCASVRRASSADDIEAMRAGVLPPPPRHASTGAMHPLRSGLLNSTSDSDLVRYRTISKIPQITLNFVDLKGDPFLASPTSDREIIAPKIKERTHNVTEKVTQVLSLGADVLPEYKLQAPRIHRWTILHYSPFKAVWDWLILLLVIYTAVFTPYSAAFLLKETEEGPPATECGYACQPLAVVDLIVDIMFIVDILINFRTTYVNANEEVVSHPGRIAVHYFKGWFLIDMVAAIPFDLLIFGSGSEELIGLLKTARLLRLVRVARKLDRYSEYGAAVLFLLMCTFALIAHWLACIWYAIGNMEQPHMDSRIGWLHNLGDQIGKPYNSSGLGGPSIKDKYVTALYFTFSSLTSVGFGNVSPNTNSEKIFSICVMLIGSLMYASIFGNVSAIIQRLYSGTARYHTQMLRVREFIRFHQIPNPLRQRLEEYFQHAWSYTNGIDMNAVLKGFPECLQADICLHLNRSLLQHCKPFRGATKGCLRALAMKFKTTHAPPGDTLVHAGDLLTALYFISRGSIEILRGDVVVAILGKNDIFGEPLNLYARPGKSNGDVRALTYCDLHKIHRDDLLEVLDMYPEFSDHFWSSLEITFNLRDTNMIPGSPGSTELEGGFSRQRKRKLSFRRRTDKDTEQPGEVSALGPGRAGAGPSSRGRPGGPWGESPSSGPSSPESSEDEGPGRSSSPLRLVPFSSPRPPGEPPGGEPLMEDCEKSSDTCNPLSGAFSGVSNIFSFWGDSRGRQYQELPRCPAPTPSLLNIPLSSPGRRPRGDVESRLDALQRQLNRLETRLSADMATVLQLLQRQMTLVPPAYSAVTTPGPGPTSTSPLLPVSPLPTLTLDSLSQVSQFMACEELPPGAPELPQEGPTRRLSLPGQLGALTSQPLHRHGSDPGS
T3 sequence (P14416 whole entry): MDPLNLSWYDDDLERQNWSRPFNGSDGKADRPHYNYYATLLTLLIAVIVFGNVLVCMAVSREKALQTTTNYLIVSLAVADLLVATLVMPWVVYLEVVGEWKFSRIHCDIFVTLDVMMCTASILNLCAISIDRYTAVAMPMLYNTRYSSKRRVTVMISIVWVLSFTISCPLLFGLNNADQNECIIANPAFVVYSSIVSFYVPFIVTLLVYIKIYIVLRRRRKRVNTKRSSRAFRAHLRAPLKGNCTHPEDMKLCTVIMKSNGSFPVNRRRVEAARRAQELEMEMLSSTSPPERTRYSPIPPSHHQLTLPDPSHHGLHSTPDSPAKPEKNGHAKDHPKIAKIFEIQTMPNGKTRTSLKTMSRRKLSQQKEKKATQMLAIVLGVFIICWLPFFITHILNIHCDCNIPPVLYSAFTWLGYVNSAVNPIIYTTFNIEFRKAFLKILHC
T5 sequence (P50406 whole entry): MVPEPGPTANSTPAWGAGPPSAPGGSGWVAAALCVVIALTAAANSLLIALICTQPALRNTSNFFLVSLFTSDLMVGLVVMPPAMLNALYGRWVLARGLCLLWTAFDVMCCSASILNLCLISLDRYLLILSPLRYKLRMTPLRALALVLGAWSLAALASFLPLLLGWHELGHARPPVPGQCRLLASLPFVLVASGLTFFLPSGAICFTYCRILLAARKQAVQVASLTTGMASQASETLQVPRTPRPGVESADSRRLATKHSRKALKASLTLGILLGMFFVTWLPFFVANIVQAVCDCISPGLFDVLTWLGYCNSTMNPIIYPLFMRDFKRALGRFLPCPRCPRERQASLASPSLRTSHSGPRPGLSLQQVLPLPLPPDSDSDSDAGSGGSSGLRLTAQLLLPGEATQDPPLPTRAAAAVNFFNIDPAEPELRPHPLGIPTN
T2 sequence (P35462 whole entry): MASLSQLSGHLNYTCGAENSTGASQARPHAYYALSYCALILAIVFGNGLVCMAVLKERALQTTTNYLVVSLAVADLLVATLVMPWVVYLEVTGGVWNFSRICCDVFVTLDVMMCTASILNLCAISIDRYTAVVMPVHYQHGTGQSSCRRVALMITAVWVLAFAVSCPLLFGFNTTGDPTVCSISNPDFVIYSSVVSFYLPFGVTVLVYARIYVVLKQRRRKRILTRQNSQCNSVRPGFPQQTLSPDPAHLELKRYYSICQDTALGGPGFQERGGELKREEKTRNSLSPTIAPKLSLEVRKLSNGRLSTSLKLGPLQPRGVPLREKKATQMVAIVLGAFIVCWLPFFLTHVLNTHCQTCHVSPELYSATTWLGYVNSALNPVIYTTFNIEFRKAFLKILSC

Turning to `O=C1CCc2ccc(OCCCN3CCN(c4cccc5c4ccn5Cc4ccccc4)CC3)cc2N1` [Compound 4, 7-[3-[4-(1-Benzylindol-4-yl)piperazin-1-yl]propoxy]-3,4-dihydro-1H-quinolin-2-one], the “hERG [%] (% block of hERG current)” value in data set [1] came out at 27%. For the same compound, the “α1 [%] affinity test result” value in data set [2] worked out at 68%.

As to `O=C1CCc2ccc(OCCCCN3CCN(c4cccc5c4ccn5Cc4ccccc4)CC3)cc2N1` [Compound 5, 7-(4-(4-(1-Benzyl-1H-indol-4-yl)piperazin-1-yl)butoxy)-3,4-dihydroquinolin-2(1H)-one], in data set [1], the “hERG [%] (% block of hERG current)” value is on record as 30%. For the same compound, the “α1 [%] affinity test result” value in data set [2] is recorded as 88%.

`O=C1CCc2ccc(OCCCN3CCN(c4cccc5c4ccn5S(=O)(=O)c4ccccc4)CC3)cc2N1` [Compound 23, 7-[3-[4-[1-(Benzensulphonyl)indol-4-yl]piperazin-1-yl]propoxy]-3,4-dihydro-1H-quinolin-2-one]: the Ki was 3.4 nM in data set [3]; over 10000 nM in data set [1]; 32 nM in data set [4]; 6.2 nM in data set [5]; 2.1 nM in data set [6]; 290 nM in data set [2]. In addition, in data set [1], the “hERG [%] (% block of hERG current)” value was 7%. Further, the “α1 [%] affinity test result” value in data set [2] turned out to be 55%.

Turning to `O=C1CCc2ccc(OCCCCN3CCN(c4cccc5c4ccn5S(=O)(=O)c4ccccc4)CC3)cc2N1` [Compound 24, 7-(4-(4-(1-(Phenylsulphonyl)-1H-indol-4-yl)piperazin-1-yl)butoxy)-3,4-dihydroquinolin-2(1H)-one], the Ki in data set [3] is 0.81 nM; in data set [1] it was over 10000 nM; in data set [4], 1.3 nM; in data set [5], 1.2 nM; in data set [6], 0.35 nM; in data set [2], 22 nM. For the same compound, the “hERG [%] (% block of hERG current)” value in data set [1] came to 9%. In addition, the “α1 [%] affinity test result” value in data set [2] came to 92%. In addition, in the data set on Male CD-1 mice, the “activity in words, dizocilpine-induced locomotor hyperactivity test” value is reported as “active”. Further, the “MED (minimum effective dose), dizocilpine-induced locomotor hyperactivity” value in the data set with Male CD-1 mice (i.p., 30 minutes before the experiment) worked out at 10 mg/kg.

On to `O=C1CCc2ccc(OCCCCN3CCN(c4cccc5c4ccn5Cc4cccc(F)c4)CC3)cc2N1` [Compound 63, 7-[4-[4-[1-[(3-Fluorophenyl)methyl]indol-4-yl]piperazin-1-yl]butoxy]-3,4-dihydro-1H-quinolin-2-one], for which the “α1 [%] affinity test result” value in data set [2] amounted to 86%.

Take `O=C1CCc2ccc(OCCCCN3CCN(c4cccc5c4ccn5Cc4cccc(Cl)c4)CC3)cc2N1` [Compound 67, 7-[4-[4-[1-[(3-Chlorophenyl)methyl]indol-4-yl]piperazin-1-yl]butoxy]-3,4-dihydro-1H-quinolin-2-one]: in data set [5], the Ki is 7 nM.

Take `NC(=O)c1ccccc1OCCCN1CCN(c2cccc3c2ccn3S(=O)(=O)c2ccccc2)CC1` [Compound 72, 2-[3-[4-[1-(Benzenesulfonyl)indol-4-yl]piperazin-1-yl]propoxy]-benzamide]: the values for the Ki in data set [4], in data set [5] and in data set [6] were 3.2 nM, 3.9 nM and 0.31 nM, respectively.
